Test results as given in patent US4148785A, “Analgesic polypeptide” (American Home Products Corporation, priority 1978, dated 1979).
Where a SMILES comes first, the peptide text is derived from it. [ ]: non-standard residue; d: D form.

Key:
rat = rat tail flick test (method of D-Amour and Smith), analgesic activity; format: in vivo
Text: The representative polypeptide of this invention Tyr--D--Ala--Gly--Phe--D--Val--NH2, gave the following results in the reference standard rat tail flick test: […]

mouse vas deferens = settings: cited from earlier work
rats = settings: injection in the brain ventricle in rats; cited from earlier work
opiate receptor = settings: brain homogenates; cited from earlier work
guinea pig ileum = settings: cited from earlier work
[1] = intracerebroventricular; cited from earlier work

Compound: CC(C)[C@@H](NC(=O)[C@H](Cc1ccccc1)NC(=O)CNC(=O)[C@@H](C)NC(=O)[C@@H](N)Cc1ccc(O)cc1)C(N)=O [Tyr--D--Ala--Gly--Phe--D--Val--NH2, L-tyrosyl-D-alanylglycyl-L-phenylalanyl-D-valine amide] (H-Y[dA]GF[dV]-NH2)
- No. showing analgesia/No. tested (rat; intravenous 1.0 milligram/kilogram, 15 minutes after administration): 2/6
- No. showing analgesia/No. tested (rat; intravenous 1.0 milligram/kilogram, 30 minutes after administration): 1/6
- No. showing analgesia/No. tested (rat; intravenous 1.0 milligram/kilogram, 60 minutes after administration): 0/6
- No. showing analgesia/No. tested (rat; intravenous 2.5 milligram/kilogram, 15 minutes after administration): 5/6
- No. showing analgesia/No. tested (rat; intravenous 2.5 milligram/kilogram, 30 minutes after administration): 3/5
- No. showing analgesia/No. tested (rat; intravenous 2.5 milligram/kilogram, 60 minutes after administration): 3/5
- No. showing analgesia/No. tested (rat; intravenous 5.0 milligram/kilogram, 15 minutes after administration): 6/6
- No. showing analgesia/No. tested (rat; intravenous 5.0 milligram/kilogram, 30 minutes after administration): 5/6
- No. showing analgesia/No. tested (rat; intravenous 5.0 milligram/kilogram, 60 minutes after administration): 0/5
- No. showing analgesia/No. tested (rat; intravenous .25 milligram/kilogram, 15 minutes after administration): 1/6
- No. showing analgesia/No. tested (rat; intravenous .25 milligram/kilogram, 30 minutes after administration): 0/6
- No. showing analgesia/No. tested (rat; intravenous .25 milligram/kilogram, 60 minutes after administration): 1/6
- No. showing analgesia/No. tested (rat; intravenous .5 milligram/kilogram, 15 minutes after administration): 4/6
- No. showing analgesia/No. tested (rat; intravenous .5 milligram/kilogram, 30 minutes after administration): 4/6
- No. showing analgesia/No. tested (rat; intravenous .5 milligram/kilogram, 60 minutes after administration): 1/6
- No. showing analgesia/No. tested (rat; subcutaneous 5.0 milligram/kilogram, 30 minutes after administration): 2/6
- No. showing analgesia/No. tested (rat; subcutaneous 5.0 milligram/kilogram, 60 minutes after administration): 1/6
- No. showing analgesia/No. tested (rat; subcutaneous 5.0 milligram/kilogram, 90 minutes after administration): 0/6
- No. showing analgesia/No. tested (rat; subcutaneous 5.0 milligram/kilogram, 120 minutes after administration): 0/6
- No. showing analgesia/No. tested (rat; subcutaneous 20.0 milligram/kilogram, 30 minutes after administration): 6/6
- No. showing analgesia/No. tested (rat; subcutaneous 20.0 milligram/kilogram, 60 minutes after administration): 3/6
- No. showing analgesia/No. tested (rat; subcutaneous 20.0 milligram/kilogram, 90 minutes after administration): 3/6
- No. showing analgesia/No. tested (rat; subcutaneous 20.0 milligram/kilogram, 120 minutes after administration): 2/6

Compound: H--Tyr--Gly--Gly--Phe--Leu--OH [leucine-enkephalin]
- block of electrically evoked contractions (mouse vas deferens): block electrically evoked contractions
- analgesia (rats): profound analgesia that is fully reversible by naloxone
- inhibition of stereospecific receptor binding of 3H-naloxone (opiate receptor): inhibit the sterospecific receptor binding
- block of electrically evoked contractions (guinea pig ileum): block electrically evoked contractions

Compound: H--Tyr--Gly--Gly--Phe--Met--OH [methionine-enkephalin]
- block of electrically evoked contractions (mouse vas deferens): block electrically evoked contractions
- analgesia (rats): profound analgesia that is fully reversible by naloxone
- inhibition of stereospecific receptor binding of 3H-naloxone (opiate receptor): inhibit the sterospecific receptor binding
- block of electrically evoked contractions (guinea pig ileum): block electrically evoked contractions

Compound: Tyr--D--Ala--Gly--Phe--D--Leu
- activity when administered intracerebroventricularly [1]: activity
